Results reported in the NIST ThermoML archive (doi:10.1016/j.tca.2016.11.017).
± gives the expanded uncertainty stated by the source.

How the values were obtained:
[1] = for mass density: 103 K, 101.33 kPa, X-ray diffraction; for Normal melting temperature: DTA
[2] = Molar enthalpy of transition or fusion; conditions: DSC

Structure (SMILES) | mass density ([1]; Crystal) [kg/m3] | Normal melting temperature ([1]; Crystal 1) [°C] | Normal melting temperature ([1]; Crystal 2) [°C] | Molar enthalpy of transition or fusion ([2]; Crystal 1) [kcal/mol] | Molar enthalpy of transition or fusion ([2]; Crystal 2) [kcal/mol] | Normal melting temperature ([1]; Crystal) [°C] | Molar enthalpy of transition or fusion ([2]; Crystal) [kcal/mol]
CO[C@H](C(=O)[O-])c1ccccc1.C[C@H]([NH3+])C1CCCCC1 | 1149 ± 6 | 162.90 ± 0.5 | 166.30 ± 0.5 | 7.31 ± 1.48 | 9.16 ± 1.84 | – | –
CO[C@H](C(=O)[O-])c1ccccc1.C[C@@H]([NH3+])C1CCCCC1 | – | – | – | – | – | 187.40 ± 0.5 | 10.9 ± 2.2
COC(C(=O)O)c1ccccc1 (configuration not stated) [2-methoxy-2-phenylacetic acid] | – | – | – | – | – | 70.60 ± 0.5 | 6 ± 1.2
CO[C@H](C(=O)O)c1ccccc1 [(S)-2-methoxy-2-phenylacetic acid] | 1311 ± 7 | – | – | – | – | 69.30 ± 0.5 | 4.51 ± 0.908
